Measurements taken from patent US8258134B2, “Pyridazinone glucokinase activators” (Hoffmann-La Roche Inc., priority 2008, dated 2012).

Target: T1, Recombinant human liver GK1 (GST-GK) (Homo sapiens, UniProt P35557)
T1 construct: made in house; host or cells: E. coli
T1 sequence (P35557 1-466 isoform P35557-2): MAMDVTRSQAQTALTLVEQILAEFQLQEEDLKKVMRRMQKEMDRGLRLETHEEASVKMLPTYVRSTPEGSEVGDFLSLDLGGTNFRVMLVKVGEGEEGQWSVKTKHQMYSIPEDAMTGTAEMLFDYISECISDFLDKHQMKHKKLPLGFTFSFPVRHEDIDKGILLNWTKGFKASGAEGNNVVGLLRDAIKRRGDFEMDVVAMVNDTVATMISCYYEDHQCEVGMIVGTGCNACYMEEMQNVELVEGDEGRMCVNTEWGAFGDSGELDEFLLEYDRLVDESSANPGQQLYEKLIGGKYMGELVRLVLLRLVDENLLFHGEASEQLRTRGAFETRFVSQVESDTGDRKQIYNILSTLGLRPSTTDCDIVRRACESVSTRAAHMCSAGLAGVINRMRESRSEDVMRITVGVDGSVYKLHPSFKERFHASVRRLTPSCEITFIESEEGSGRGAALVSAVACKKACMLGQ
Assay: Glucokinase in vitro assay (G6PDH-coupled NADH generation, OD340)
Assay type: biochemical
Conditions: 5 mM D-glucose, 30° C., pH 7.1, 10% DMSO
In short: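 Activation readout is SC1.5, the activator concentration raising GK rate (OD340/min) 50% above 10% DMSO controls. The coupled reaction used GST-GK1 from E. coli, 5 mM glucose, 1 mM ATP, 1.8 mM NAD and 25 mM Hepes pH 7.1 at 30° C. Enzyme was added after a 10 min compound pre-incubation.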

| SC1.5 average (concentration of activator that produced a 50% increase in the activity of GK) [µM] | SMILES |
| --- | --- |
| 0.132 | COC(=O)c1ccc(NC(=O)C(CC2CCCC2)n2ncc(Oc3cccc4c3CCCC4)cc2=O)nc1 (centres unmarked) [Example 67, 6-{3-Cyclopentyl-2-[6-oxo-4-(5,6,7,8-tetrahydro-naphthalen-1-yloxy)-6H-pyridazin-1-yl]-propionylamino}-nicotinic acid methyl ester] |
| 0.098 | O=C(O)c1ccc(NC(=O)C(CC2CCCC2)n2ncc(Oc3cccc4c3CCCC4)cc2=O)nc1 (centres unmarked) [Example 72, 6-{3-Cyclopentyl-2-[6-oxo-4-(5,6,7,8-tetrahydro-naphthalen-1-yloxy)-6H-pyridazin-1-yl]-propionylamino}-nicotinic acid] |
| 0.044 | O=C(O)c1ccc(NC(=O)[C@H](CC2CCCC2)n2ncc(Oc3cccc4c3CCCC4)cc2=O)nc1 [Example 72A, 6-{(S)-3-Cyclopentyl-2-[6-oxo-4-(5,6,7,8-tetrahydro-naphthalen-1-yloxy)-6H-pyridazin-1-yl]-propionylamino}-nicotinic acid] |
| 0.226 | O=C(O)c1ccc(NC(=O)[C@@H](CC2CCCC2)n2ncc(Oc3cccc4c3CCCC4)cc2=O)nc1 [Example 72B, 6-{(R)-3-Cyclopentyl-2-[6-oxo-4-(5,6,7,8-tetrahydro-naphthalen-1-yloxy)-6H-pyridazin-1-yl]-propionylamino}-nicotinic acid] |
| 0.026 | O=C(O)c1ccc(NC(=O)C(CC2CCCC2)n2ncc(Oc3c(F)cccc3F)cc2=O)nc1 (centres unmarked) [Example 73, 6-{3-Cyclopentyl-2-[4-(2,6-difluoro-phenoxy)-6-oxo-6H-pyridazin-1-yl]-propionylamino}-nicotinic acid] |
| 0.012 | O=C(O)c1ccc(NC(=O)[C@H](CC2CCCC2)n2ncc(Oc3c(F)cccc3F)cc2=O)nc1 [Example 73A, 6-{(S)-3-Cyclopentyl-2-[4-(2,6-difluoro-phenoxy)-6-oxo-6H-pyridazin-1-yl]-propionylamino}-nicotinic acid] |

Second part, the compound before the results:

| SMILES | SC1.5 average (concentration of activator that produced a 50% increase in the activity of GK) [µM] |
| --- | --- |
| COC(=O)c1ccc(NC(=O)C(CC2CCCC2)n2ncc(Oc3c(F)cccc3F)cc2=O)nc1 (centres unmarked) [Example 68, 6-{3-Cyclopentyl-2-[4-(2,6-difluoro-phenoxy)-6-oxo-6H-pyridazin-1-yl]-propionylamino}-nicotinic acid methyl ester] | 0.013 |
| COC(=O)c1ccc(NC(=O)[C@H](CC2CCCC2)n2ncc(Oc3c(F)cccc3F)cc2=O)nc1 [Example 68A, 6-{(S)-3-Cyclopentyl-2-[4-(2,6-difluoro-phenoxy)-6-oxo-6H-pyridazin-1-yl]-propionylamino}-nicotinic acid methyl ester] | 0.008 |
| COC(=O)c1ccc(NC(=O)[C@@H](CC2CCCC2)n2ncc(Oc3c(F)cccc3F)cc2=O)nc1 [Example 68B, 6-{(R)-3-Cyclopentyl-2-[4-(2,6-difluoro-phenoxy)-6-oxo-6H-pyridazin-1-yl]-propionylamino}-nicotinic acid methyl ester] | 0.597 |
| COC(=O)c1ccc(NC(=O)C(CC2CCCC2)n2ncc(Oc3ccccc3C)cc2=O)nc1 (centres unmarked) [Example 69, 6-[3-Cyclopentyl-2-(6-oxo-4-o-tolyloxy-6H-pyridazin-1-yl)-propionylamino]-nicotinic acid methyl ester] | 0.033 |
| COC(=O)c1ccc(NC(=O)C(CC2CCCC2)n2ncc(Oc3ccccc3F)cc2=O)nc1 (centres unmarked) [Example 70, 6-{3-Cyclopentyl-2-[4-(2-fluoro-phenoxy)-6-oxo-6H-pyridazin-1-yl]-propionylamino}-nicotinic acid methyl ester] | 0.036 |
